Reference: patent US11174251B2, “Compositions and methods for inhibition of the JAK pathway” (Rigel Pharmaceuticals, Inc., priority 2010, dated 2021)
Structures can show the parent of a compound that is named as a salt.

Biological target: T1, JAK3 (Homo sapiens, UniProt P52333)
T1 construct: The Ramos B-cell line was acquired from ATCC (ATCC Catalog No. CRL-1596); host or cells: Ramos B-cell line (human)
T1 sequence (P52333 1-1124): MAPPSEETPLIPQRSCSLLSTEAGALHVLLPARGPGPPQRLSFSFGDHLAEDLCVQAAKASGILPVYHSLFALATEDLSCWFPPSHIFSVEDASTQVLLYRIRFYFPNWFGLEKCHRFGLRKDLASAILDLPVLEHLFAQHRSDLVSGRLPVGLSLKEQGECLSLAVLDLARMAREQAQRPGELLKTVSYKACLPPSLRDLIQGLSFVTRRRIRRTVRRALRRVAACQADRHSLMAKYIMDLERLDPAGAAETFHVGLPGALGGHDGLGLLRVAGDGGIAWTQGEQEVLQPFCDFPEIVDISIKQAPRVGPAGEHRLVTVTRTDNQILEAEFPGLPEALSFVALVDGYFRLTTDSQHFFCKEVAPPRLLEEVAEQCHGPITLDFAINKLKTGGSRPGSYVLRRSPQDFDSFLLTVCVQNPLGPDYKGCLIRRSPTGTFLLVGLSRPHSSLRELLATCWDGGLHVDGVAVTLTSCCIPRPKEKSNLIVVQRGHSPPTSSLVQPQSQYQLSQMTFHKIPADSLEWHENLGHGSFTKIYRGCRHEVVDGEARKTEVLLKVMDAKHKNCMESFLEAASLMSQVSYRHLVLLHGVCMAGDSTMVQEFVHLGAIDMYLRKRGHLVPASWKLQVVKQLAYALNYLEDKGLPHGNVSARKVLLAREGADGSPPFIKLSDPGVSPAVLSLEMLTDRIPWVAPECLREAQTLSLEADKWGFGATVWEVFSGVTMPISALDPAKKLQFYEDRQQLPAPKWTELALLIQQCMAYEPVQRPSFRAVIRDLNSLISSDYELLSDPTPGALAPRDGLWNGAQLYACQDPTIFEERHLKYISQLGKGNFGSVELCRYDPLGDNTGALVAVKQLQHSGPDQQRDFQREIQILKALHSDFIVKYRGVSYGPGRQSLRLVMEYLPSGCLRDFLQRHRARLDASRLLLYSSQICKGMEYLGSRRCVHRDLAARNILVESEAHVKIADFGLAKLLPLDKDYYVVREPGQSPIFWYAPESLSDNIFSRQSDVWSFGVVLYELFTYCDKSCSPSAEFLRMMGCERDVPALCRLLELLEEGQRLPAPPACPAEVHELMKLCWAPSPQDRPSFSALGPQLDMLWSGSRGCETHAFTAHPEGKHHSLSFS
Test: Assay for CD23 expression on Ramos B-cells stimulated by IL-4 (Table IV: ability to inhibit JAK3 activity)
Assay type: cell-based
Conditions: tested under conditions described in Example 3 (so in the source)
From the text: One means of assaying for such inhibition is detection of the effect of the 2,4-pyrimidinediamine compounds on the upregulation of downstream gene products. In the Ramos/IL4 assay, B-cells are stimulated with the cytokine Interleukin-4 (IL-4) leading to the activation of the JAK/Stat pathway through phosphorylation of the JAK family kinases, JAK1 and JAK3, which in turn phosphorylate and activate the transcription factor Stat-6. […] To study the effect of inhibitors (for example, the 2,4-substituted pyrimindinediamine compounds described herein) on the JAK1 and JAK3 kinases, human Ramos B cells are stimulated with human IL-4. 20 to 24 hours post stimulation, cells are stained for upregulation of CD23 and analyzed using FACS.
B-cells stimulated with cytokine Interleukin-4 (IL-4) activate the JAK/Stat pathway through phosphorylation of the JAK family kinases, JAK-1 and JAK-3, which in turn phosphorylate and activate the transcription factor Stat-6. […] To study the effect of inhibitors on the JAK family kinases, human Ramos B cells were stimulated with human IL-4 and the surface expression of CD23 was measured.
The day before the experiment, Ramos B-cells were diluted to 3.5×10^5 cells/mL to ensure that they were in a logarithmic growth phase.
Cells were spun down and suspended in RPMI with 5% serum. 5×10^4 cells were used per point in a 96-well tissue culture plate. Cells were pre-incubated with compound or DMSO (Sigma-Aldrich, St. Louis, Mo., Cat No. D2650) vehicle control for 1 hour in a 37° C. incubator. Cells were then stimulated with IL-4 (Peprotech Inc., Rocky Hill, N.J., Cat No. 200-04) for a final concentration of 50 units/mL for 20-24 hours. […] Detection was performed using a BD LSR I System Flow Cytometer, purchased from Becton Dickinson Biosciences of San Jose, Calif.
The compound designations in Table IV are consistent with those of Tables I-II above.

Structure (SMILES)	IC50 [nM]
[2H]C([2H])([2H])c1c(C)cc(Nc2ncc(F)c(Nc3ccc4oc(=O)[nH]c4c3)n2)cc1C [Compound I-37, 5-(5-fluoro-2-(3,5-dimethyl-4-d3-methyl)phenylamino)pyrimidin-4-ylamino)benzo[d]oxazol-2(3H)-one trifluoroacetate salt]	> 10000
[2H]C([2H])([2H])c1c(C)cc(Nc2nccc(Nc3ccc4oc(=O)[nH]c4c3)n2)cc1C [Compound I-38, 5-(2-(3,5-dimethyl-4-d3-methyl)phenylamino)pyrimidin-4-ylamino)benzo[d]oxazol-2(3H)-one trifluoroacetate salt]	< 500
COC(=O)c1cnc(Nc2ccccc2)nc1Nc1ccc2oc(=O)[nH]c2c1 [Compound I-39, 4-(2-oxo-2,3-dihydro-benzooxazol-5-ylamino)-2-phenylamino-pyrimidine-5-carboxylic acid methyl ester trifluoroacetate salt]	> 10000
COC(=O)c1cnc(Nc2cc(C)c(C)c(C)c2)nc1Nc1ccc2oc(=O)[nH]c2c1 [Compound I-40, 4-(2-Oxo-2,3-dihydro-benzooxazol-5-ylamino)-2-(3,4,5-trimethyl-phenylamino)-pyrimidine-5-carboxylic acid methyl ester trifluoroacetate salt]	< 500
O=c1[nH]c2cc(Nc3nc(Nc4ccccc4)ncc3[N+](=O)[O-])ccc2o1 [Compound I-41, 5-(5-nitro-2-(phenylamino)pyrimidin-4-ylamino)benzo[d]oxazol-2(3H)-one trifluoroacetate salt]	5000 to 10000
Cc1cc(Nc2ncc([N+](=O)[O-])c(Nc3ccc4oc(=O)[nH]c4c3)n2)cc(C)c1C [Compound I-42, 5-(5-nitro-2-(3,4,5-trimethylphenylamino)pyrimidin-4-ylamino)benzo[d]oxazol-2(3H)-one trifluoroacetate salt]	> 10000
COc1c(F)ccc(Nc2ncc([N+](=O)[O-])c(Nc3ccc4oc(=O)[nH]c4c3)n2)c1F [Compound I-43, 5-(2-(2,4-difluoro-3-methoxyphenylamino)-5-nitropyrimidin-4-ylamino)benzo[d]oxazol-2(3H)-one trifluoroacetate salt]	> 10000
COc1cc(Nc2ncc([N+](=O)[O-])c(Nc3ccc4oc(=O)[nH]c4c3)n2)ccc1C [Compound I-44, 5-(2-(3-methoxy-4-methylphenylamino)-5-nitropyrimidin-4-ylamino)benzo[d]oxazol-2(3H)-one trifluoroacetate salt]	> 10000
Cc1ccc(Nc2ncc([N+](=O)[O-])c(Nc3ccc4oc(=O)[nH]c4c3)n2)cc1N(C)C [Compound I-45, 5-(2-(3-(dimethylamino)-4-methylphenylamino)-5-nitropyrimidin-4-ylamino)benzo[d]oxazol-2(3H)-one trifluoroacetate salt]	> 10000
COc1cc(Nc2ncc([N+](=O)[O-])c(Nc3ccc4oc(=O)[nH]c4c3)n2)cc(C(F)(F)F)c1 [Compound I-47, 5-(2-(3-methoxy-5-(trifluoromethyl)phenylamino)-5-nitropyrimidin-4-ylamino)benzo[d]oxazol-2(3H)-one trifluoroacetate salt]	> 10000
COC(=O)c1cnc(Nc2ccc(F)c(OC)c2F)nc1Nc1ccc2oc(=O)[nH]c2c1 [Compound I-48, 2-(2,4-Difluoro-3-methoxy-phenylamino)-4-(2-oxo-2,3-dihydro-benzooxazol-5-ylamino)-pyrimidine-5-carboxylic acid methyl ester trifluoroacetate salt]	> 10000
Cc1cc(Nc2ncc(C(=O)O)c(Nc3ccc4oc(=O)[nH]c4c3)n2)cc(C)c1C [Compound I-49, 4-(2-Oxo-2,3-dihydro-benzooxazol-5-ylamino)-2-(3,4,5-trimethyl-phenylamino)-pyrimidine-5-carboxylic acid trifluoroacetate salt]	> 10000
COc1ccc(Nc2ncc(C)c(Nc3ccc4oc(=O)[nH]c4c3)n2)c(F)c1OC [Compound I-50, 5-[2-(2-Fluoro-3,4-dimethoxy-phenylamino)-5-methyl-pyrimidin-4-ylamino]-3H-benzooxazol-2-one]	< 500
COc1ccc(Nc2ncc(Cl)c(Nc3ccc4oc(=O)[nH]c4c3)n2)c(F)c1OC [Compound I-51, 5-(5-chloro-2-(2-fluoro-3,4-dimethoxyphenylamino)pyrimidin-4-ylamino)benzo[d]oxazol-2(3H)-one trifluoroacetate salt]	< 500

Continued, values first:

IC50 [nM]	Structure (SMILES)
< 500	COc1c(Br)ccc(Nc2ncc(C)c(Nc3ccc4oc(=O)[nH]c4c3)n2)c1F [Compound I-27, 5-[2-(4-Bromo-2-fluoro-3-methoxy-phenylamino)-5-methyl-pyrimidin-4-ylamino]-3H-benzooxazol-2-one]
< 500	Cc1cnc(Nc2ccc(Br)cc2F)nc1Nc1ccc2oc(=O)[nH]c2c1 [Compound I-28, 5-[2-(4-Bromo-2-fluoro-phenylamino)-5-methyl-pyrimidin-4-ylamino]-3H-benzooxazol-2-one]
< 500	COc1c(C)ccc(Nc2ncc(C)c(Nc3ccc4oc(=O)[nH]c4c3)n2)c1F [Compound I-29, 5-[2-(2-Fluoro-3-methoxy-4-methyl-phenylamino)-5-methyl-pyrimidin-4-ylamino]-3H-benzooxazol-2-one trifluoroacetate salt]
< 500	Cc1cnc(Nc2ccc(CC=O)cc2)nc1Nc1ccc2oc(=O)[nH]c2c1 [Compound I-30, {4-[5-Methyl-4-(2-oxo-2,3-dihydro-benzooxazol-5-ylamino)-pyrimidin-2-ylamino]-phenyl}-acetaldehyde]
< 500	C#Cc1cccc(Nc2ncc(C)c(Nc3ccc4oc(=O)[nH]c4c3)n2)c1 [Compound I-31, 5-[2-(3-Ethynyl-phenylamino)-5-methyl-pyrimidin-4-ylamino]-3H-benzooxazol-2-one]
< 500	COc1cc(Nc2ncc(Cl)c(Nc3ccc4oc(=O)[nH]c4c3)n2)ccc1C [Compound I-32, 5-(5-chloro-2-(3-methoxy-4-methylphenylamino)pyrimidin-4-ylamino)benzo[d]oxazol-2(3H)-one trifluoroacetate salt]
< 500	Cc1ccc(Nc2ncc(Cl)c(Nc3ccc4oc(=O)[nH]c4c3)n2)cc1N(C)C [Compound I-33, 5-(5-chloro-2-(3-(dimethylamino)-4-methylphenylamino)pyrimidin-4-ylamino)benzo[d]oxazol-2(3H)-one]
< 500	COc1ccc(Nc2ncc(C)c(Nc3ccc4oc(=O)[nH]c4c3)n2)cc1N [Compound I-34, 5-[2-(3-Amino-4-methoxy-phenylamino)-5-methyl-pyrimidin-4-ylamino]-3H-benzooxazol-2-one]
< 500	[2H]C([2H])([2H])c1c(C)cc(Nc2ncc(C)c(Nc3ccc4oc(=O)[nH]c4c3)n2)cc1C [Compound I-35, 5-[5-Methyl-2-(3,5-dimethyl-4-d3-methyl-phenylamino)-pyrimidin-4-ylamino]-3H-benzooxazol-2-one trifluoroacetate salt]
< 500	[2H]C([2H])([2H])c1c(C)cc(Nc2ncc(Cl)c(Nc3ccc4oc(=O)[nH]c4c3)n2)cc1C [Compound I-36, 5-(5-chloro-2-(3,5-dimethyl-4-d3-methyl)phenylamino)pyrimidin-4-ylamino)benzo[d]oxazol-2(3H)-one trifluoroacetate salt]
